Patent US20240051957A1, “CRYSTALLINE FORM OF HETEROCYCLIC COMPOUND AS PROTEIN KINASE INHIBITOR” (HK INNO.N CORPORATION, priority 2021, published 2024)

What was measured:
[1] = Physical stability evaluation under stress conditions (XRPD before/after); format: physicochemical; details: stored at 60° C.±2° C./80% RH±5% for two days, packaged ((LPDE+N2)+silica gel 1 g+LDPE)+Al-Bag
Description: 1. XRPD Analysis A plate for obtaining an XRPD pattern was mounted on a Bruker General Area Detector Diffraction System (GADDS) equipped with a VANTEC-500 gas domain detector calibrated for intensity and geometric changes. Calibration of measurement accuracy (peak position) was performed using NIST SRM1976 standard (Corundum). Data collection was performed at room temperature using monochromatic CuKα radiation in a diffraction angle (2θ) region of 1.5° to 41.5°, the most distinct part of the XRPD pattern. The diffraction pattern of each well was collected at two 2θ ranges (1.5°≤2θ≤21.5° for a first frame and 9.5°≤2θ≤41.5° for a second frame) with an exposure time of 90 seconds for each frame. No background subtraction or curve smoothing was applied to the XRPD pattern. The carrier material used in the XRPD analysis was transparent to X-rays.
4. Experiment on Physical Stability Evaluation
Samples were packaged in the form of ((LPDE+N2)+silica gel 1 g+LDPE)+Al-Bag, and stored under stress conditions (60° C.±2° C./80% RH±5%) for two days before evaluation.

[2] = TGA/SDTA and TGMS analysis; format: physicochemical; details: heating 25° C. to 300° C. at 10° C./min
Description: 3. TGA/SDTA and TGMS Analysis
A mass loss caused by solvent or a moisture loss from crystals was determined by thermogravimetric analysis/simultaneous differential thermal analysis (TGA/SDTA). A weight versus temperature curve was generated by monitoring the weight of samples during heating in a TGA/SDTA851e apparatus (product name, Mettler-Toledo GmbH, Switzerland). TGA/SDTA851e was calibrated with indium and aluminum samples. The sample was placed in a 100 μL aluminum crucible and sealed, and then a pin-hole was drilled therein. The crucible was heated from 25° C. to 300° C. in TGA at a heating rate of 10° C./min. Dry N2 gas was used for purging. The gas coming out of the TGA sample was analyzed by Omnistar GSD 301 T2 (product name, Pfeiffer Vacuum GmbH, Germany), which was a quadrupole mass spectrometer for analyzing a mass in the range of 0-200 amu.

start of thermal decomposition ([2]; TGA)	mass reduction rate (thermogravimetric analysis) ([2]; at 150° C.) [%]	Compound	change in the XPRD pattern before/after the stress conditions (physical stability) [1]
–	–	C[C@@H]1CN(C(=O)CC#N)CC=C1c1cc(NC(=O)C2CC2)nc2[nH]ccc12 [Example 1, (S)-N-(4-(1-(2-cyanoacetyl)-3-methyl-1,2,3,6-tetrahydropyridin-4-yl)-1H-pyrrolo[2,3-b]pyridin-6-yl)cyclopropanecarboxamide]	substantially no change in the XPRD pattern
about 260 °C	1.6	C[C@@H]1CN(C(=O)CC#N)CC=C1c1cc(NC(=O)C2CC2)nc2[nH]ccc12 [(S)-N-(4-(1-(2-cyanoacetyl)-3-methyl-1,2,3,6-tetrahydropyridin-4-yl)-1H-pyrrolo[2,3-b]pyridin-6-yl)cyclopropanecarboxamide]	–
